Laboratory results taken from ChEMBL document CHEMBL1127513, “Glutathione-S-transferase activates novel alkylating agents” (J Med Chem, 1994).

What was measured:
Format in all cases: functional, cell-based
MCF7 [1] = test: Inhibitory activity against MCF-7 neo cells […] for treatment time of 120 min.; settings: Homo sapiens, MCF7, 2 h
HT-29 [2] = test: Inhibitory activity against HT-29 human colon carcinoma cells containing P1-1 GST for treatment time of 120 min.; settings: HT-29, 2 h
MCF7 [3] = test: Inhibitory activity against MCF-7 pi cells containing P1-1 GST for treatment time of 120 min.; settings: Homo sapiens, MCF7, 2 h
HT-29 [4] = test: Inhibitory activity against HT-29 human colon carcinoma cells containing P1-1 GST for treatment time of 60 min.; settings: HT-29, 1 h

Compound	IC50 (MCF7 [1])	IC50 (HT-29 [2])	IC50 (MCF7 [3])	IC50 (HT-29 [4])
NC(CCC(=O)NC(CS(=O)(=O)CCOP(=O)(N(CCCl)CCCl)N(CCCl)CCCl)C(=O)NC(C(=O)O)c1ccccc1)C(=O)O (stereo not drawn)	37.5 µM	80.3 µM	9.5 µM	170 µM
NC(CCC(=O)NC(CS(=O)(=O)CCOP(=O)(N(CCCl)CCCl)N(CCCl)CCCl)C(=O)NCC(=O)O)C(=O)O (stereo not drawn)	40.2 µM	68.9 µM	20.9 µM	84.7 µM
